Laboratory results published in patent publication US10071082B2, “Antimicrobial agents” (Rutgers, The State University of New Jersey, priority 2013, dated 2018).
≈ marks a conversion by molar mass, not a printed value. Like-named read-outs stand apart in the source and are kept apart here.

What was measured:
[1] = tested on: MSSA; test: Test A antibacterial assay, broth microdilution MIC; assay type: cell-based; settings: Staphylococcus aureus, read-out: MIC MSSA
Protocol: (§1) Antibacterial activity can be determined as per Clinical and Laboratory Standards Institute (CLSI) guidelines using a broth microdilution assay in which log-phase bacteria are grown at 37° C. in appropriate medium containing two-fold serial dilutions of a compound to yield final concentrations ranging from 256 to 0.06 μg/mL. For determination of minimal inhibitory concentration (MIC) values, bacterial growth is monitored after 24 to 48 hours by measuring optical density at 600 nm.

[2] = tested on: MRSA; test: as above; assay type: cell-based; settings: Staphylococcus aureus, read-out: MIC MRSA
Protocol: as §1

[3] = MIC values may be lower as solubility and aggregate formation may reduce observed activity
[4] = MIC determined in the presence of 50% mouse serum

| Structure (SMILES) | MIC [1] | MIC [2] | MIC [1, 3] | MIC [2, 3] | MIC [1, 4] |
| --- | --- | --- | --- | --- | --- |
| O=C(NC(=O)c1c(F)ccc(OCc2nc3cc(Cl)ccc3s2)c1F)OCCF [Example 31] | > 64 µg/mL | 4 µg/mL (≈ 8.99 µM) |  |  |  |
| CC(C)OC(=O)NC(=O)c1c(F)ccc(OCc2nc3cc(Cl)ccc3s2)c1F [Example 30] | > 64 µg/mL | 2 µg/mL (≈ 4.54 µM) |  |  |  |
| CN1CCC(C(=O)NC(=O)c2c(F)ccc(OCc3nc4cc(Cl)ccc4s3)c2F)CC1 [Example 8] | 0.5 µg/mL (≈ 1.04 µM) | 0.5 µg/mL (≈ 1.04 µM) |  |  |  |
| CCC(C)C(=O)NC(=O)c1c(F)ccc(OCc2nc3cc(Cl)ccc3s2)c1F (stereo not shown) [Example 25] | > 64 µg/mL | 2 µg/mL (≈ 4.56 µM) |  |  |  |
| CC(C)c1csc(COc2ccc(F)c(C(=O)NC(=O)C3CCN(C)CC3)c2F)n1 [Example 48] | 8 µg/mL (≈ 18.3 µM) | 8 µg/mL (≈ 18.3 µM) |  |  |  |
| CN1CCC(C(=O)NC(=O)c2c(F)ccc(OC(CO)c3nc(-c4ccc(C(F)(F)F)cc4)c(Br)o3)c2F)CC1 (stereo not shown) [Example 42] | 1 µg/mL (≈ 1.58 µM) | 16 µg/mL (≈ 25.3 µM) |  |  |  |
| O=C(Cc1ccccc1)NC(=O)c1c(F)ccc(OCc2nc3cc(Cl)ccc3s2)c1F [Example 21] | > 64 µg/mL | 2 µg/mL (≈ 4.23 µM) |  |  |  |
| CC(=O)NC(=O)c1c(N2CCN(C)CC2)ccc(OCc2nc3cc(Cl)ccc3s2)c1F [Example 39] | > 64 µg/mL | > 64 µg/mL |  |  |  |
| CN1CCC(C(=O)NC(=O)c2c(Cl)ccc(OCc3nc4cc(Cl)cnc4s3)c2F)CC1 [Example 41] | 4 µg/mL (≈ 8.04 µM) | 8 µg/mL (≈ 16.1 µM) |  |  |  |
| O=C(NC(=O)c1c(F)ccc(OCc2nc3cc(Cl)ccc3s2)c1F)c1c(Cl)ccnc1Cl [Example 18] | > 64 µg/mL | > 64 µg/mL |  |  |  |
| CNC(=O)NC(=O)c1c(F)ccc(OCc2nc3cc(Cl)ccc3s2)c1F [Example 51] | > 64 µg/mL | > 64 µg/mL |  |  |  |
| O=C(NC(=O)C1CCCCC1)c1c(F)ccc(OCc2nc3cc(Cl)ccc3s2)c1F [Example 7] |  |  | 0.5 µg/mL (≈ 1.08 µM) |  |  |
| O=CNC(=O)c1c(F)ccc(OCc2nc3cc(Cl)ccc3s2)c1F [Example 1] | 0.25 µg/mL (≈ 0.653 µM) | 0.125 µg/mL (≈ 0.327 µM) |  |  |  |
| CCCC(=O)NC(=O)c1c(F)ccc(OCc2nc3cc(Cl)ccc3s2)c1F [Example 6] |  |  | 0.5 µg/mL (≈ 1.18 µM) | 1 µg/mL (≈ 2.35 µM) |  |
| CC(C)(C)c1cc(C(=O)NC(=O)c2c(F)ccc(OCc3nc4cc(Cl)ccc4s3)c2F)cc(C(C)(C)C)c1 [Example 37] | > 64 µg/mL | 8 µg/mL (≈ 14 µM) |  |  |  |
| COc1cccc(COC(=O)NC(=O)c2c(F)ccc(OCc3nc4cc(Cl)ccc4s3)c2F)c1 [Example 29] | 8 µg/mL (≈ 15.4 µM) | 32 µg/mL (≈ 61.7 µM) |  |  |  |
| CCC(=O)N(C(=O)CC)C(=O)c1c(F)ccc(OCc2nc3cc(Cl)ccc3s2)c1F [Example 43] | 64 µg/mL (≈ 137 µM) | 64 µg/mL (≈ 137 µM) |  |  |  |

| Structure (SMILES) | MIC [1] | MIC [2] | MIC [1, 3] | MIC [2, 3] | MIC [1, 4] |
| --- | --- | --- | --- | --- | --- |
| O=C(NC(=O)c1c(F)ccc(OCc2nc3cc(Cl)ccc3s2)c1F)c1ccc(CCl)cc1 [Example 13] |  |  |  |  | 4 µg/mL |
| CC(C(=O)NC(=O)c1c(F)ccc(OCc2nc3cc(Cl)ccc3s2)c1F)c1ccccc1 (stereo not shown) [Example 23] | > 64 µg/mL | 2 µg/mL (≈ 4.11 µM) |  |  |  |
| C/C(=N\C(=O)c1c(F)ccc(OCc2nc3cc(Cl)ccc3s2)c1F)N(C)C [Example 2a, 3-((5-Chlorobenzo[d]thiazol-2-yl)methoxy)-N-(1-(dimethylamino)ethylidene)-2,6-difluorobenzamide] | 2 µg/mL (≈ 4.72 µM) | 4 µg/mL (≈ 9.44 µM) |  |  |  |
| O=C(CCl)NC(=O)c1c(F)ccc(OCc2nc3cc(Cl)ccc3s2)c1F [Example 10] | 0.125 µg/mL (≈ 0.29 µM) | 0.25 µg/mL (≈ 0.58 µM) |  |  |  |
| CN(C)/C=N/C(=O)c1c(F)ccc(OCc2nc3cc(Cl)ccc3s2)c1F [Example 1b, 3-((5-Chlorobenzo[d]thiazol-2-yl)methoxy)-N-((dimethylamino)methylene)-2,6-difluorobenzamide] | 0.125 µg/mL (≈ 0.305 µM) | 0.125 µg/mL (≈ 0.305 µM) |  |  |  |
| CC1CCN(CC(=O)NC(=O)c2c(F)ccc(OCc3nc4cc(Cl)ccc4s3)c2F)CC1 [Example 11] | 0.5 µg/mL (≈ 1.01 µM) | 1 µg/mL (≈ 2.02 µM) |  |  |  |
| O=C(c1c(F)ccc(OCc2nc3cc(Cl)ccc3s2)c1F)N(C(=O)C(F)(F)F)C(=O)C(F)(F)F [Example 14] |  |  |  |  | 2 µg/mL |
| CN1CCC(C(=O)NC(=O)c2c(F)ccc(OCc3nc(-c4ccc(C(F)(F)F)cn4)c(Br)o3)c2F)CC1 [Example 49] | 2 µg/mL (≈ 3.31 µM) | 16 µg/mL (≈ 26.5 µM) |  |  |  |
| CC(=O)NC(=O)c1c(F)ccc(OCc2cccc(-c3ccc(C(C)(C)C)cc3)c2)c1F [Example 36] | > 64 µg/mL | > 64 µg/mL |  |  |  |
| CC(=O)NC(=O)c1c(F)ccc(OCc2nc3cc(Cl)cnc3s2)c1F [Example 4] |  |  |  |  | 2 µg/mL |
| CN1CCC(C(=O)NC(=O)c2c(F)ccc(OCc3nc(-c4ccc(C(F)(F)F)cn4)ns3)c2F)CC1 [Example 50] | 1 µg/mL (≈ 1.85 µM) | 4 µg/mL (≈ 7.39 µM) |  |  |  |
| CN1CCN(C(=O)NC(=O)c2c(F)ccc(OCc3nc4cc(Cl)cnc4s3)c2F)CC1 [Example 35] | 0.25 µg/mL (≈ 0.519 µM) | 2 µg/mL (≈ 4.15 µM) |  |  |  |
| CS(=O)(=O)NC(=O)c1c(F)ccc(OCc2nc3cc(Cl)ccc3s2)c1F [Example 15] | 8 µg/mL (≈ 18.5 µM) | 8 µg/mL (≈ 18.5 µM) |  |  |  |
| O=C(NC(=O)c1c(F)ccc(OCc2nc3cc(Cl)ccc3s2)c1F)Oc1ccccc1 [Example 32, Phenyl(3-((5-chlorobenzo[d]thiazol-2-yl)methoxy)-2,6-difluorobenzoyl)carbamate] | 4 µg/mL (≈ 8.42 µM) | 4 µg/mL (≈ 8.42 µM) |  |  |  |
| COC(=O)NC(=O)c1c(F)ccc(OCc2nc3cc(Cl)ccc3s2)c1F [Example 26] | > 64 µg/mL | 8 µg/mL (≈ 19.4 µM) |  |  |  |
| CN(C)C(=O)NC(=O)c1c(F)ccc(OCc2nc3cc(Cl)ccc3s2)c1F [Example 27] | > 64 µg/mL | > 64 µg/mL |  |  |  |

Next, values leading:

| MIC [1] | MIC [2] | MIC [1, 3] | MIC [2, 3] | MIC [1, 4] | Structure (SMILES) |
| --- | --- | --- | --- | --- | --- |
| > 64 µg/mL | > 64 µg/mL |  |  |  | CC(=O)NC(=O)c1cccc(OCc2nc3cc(Cl)ccc3s2)c1 [Example 38] |
| 0.5 µg/mL (≈ 1.14 µM) | 2 µg/mL (≈ 4.58 µM) |  |  |  | O=C(NC(=O)C1CCC1)c1c(F)ccc(OCc2nc3cc(Cl)ccc3s2)c1F [Example 22] |
| > 64 µg/mL | > 64 µg/mL |  |  |  | CN1CCN(C(=O)NC(=O)c2c(F)ccc(OCc3nc4cc(Cl)ccc4s3)c2F)CC1 [Example 33] |
| > 64 µg/mL | 4 µg/mL (≈ 9.11 µM) |  |  |  | CC(C)(C)C(=O)NC(=O)c1c(F)ccc(OCc2nc3cc(Cl)ccc3s2)c1F [Example 20] |
|  |  | 0.5 µg/mL (≈ 1.09 µM) |  |  | O=C(NC(=O)c1c(F)ccc(OCc2nc3cc(Cl)ccc3s2)c1F)c1ccccc1 [Example 9] |
| > 64 µg/mL | 4 µg/mL (≈ 7.56 µM) |  |  |  | O=C(NC(=O)c1c(F)ccc(OCc2nc3cc(Cl)ccc3s2)c1F)c1ccnc(Cl)c1Cl [Example 19] |
| > 64 µg/mL | > 64 µg/mL |  |  |  | O=C(NC(=O)c1c(F)ccc(OCc2nc3cc(Cl)ccc3s2)c1F)c1c(Cl)cccc1Cl [Example 24] |
| > 64 µg/mL | 2 µg/mL (≈ 4.55 µM) |  |  |  | CCC(C)C(=O)NC(=O)c1c(F)ccc(OCc2nc3cc(Cl)cnc3s2)c1F (stereo not shown) [Example 40] |
| 1 µg/mL (≈ 1.62 µM) | 4 µg/mL (≈ 6.47 µM) |  |  |  | CN1CCC(C(=O)NC(=O)c2c(F)ccc(OCc3nc(-c4ccc(OC(F)(F)F)cc4)c(Br)o3)c2F)CC1 [Example 46] |
| 0.125 µg/mL (≈ 0.27 µM) | 0.25 µg/mL (≈ 0.54 µM) |  |  |  | O=C(Cn1ccnc1)NC(=O)c1c(F)ccc(OCc2nc3cc(Cl)ccc3s2)c1F [Example 12] |
| 0.5 µg/mL (≈ 1.3 µM) | 0.5 µg/mL (≈ 1.3 µM) |  |  |  | O=CNC(=O)c1c(F)ccc(OCc2nc3cc(Cl)cnc3s2)c1F [Example 3] |
| 0.5 µg/mL (≈ 1.22 µM) | 1 µg/mL (≈ 2.43 µM) |  |  |  | CN(C)/C=N/C(=O)c1c(F)ccc(OCc2nc3cc(Cl)cnc3s2)c1F [Example 3b, 3-((6-Chlorothiazolo[5,4-b]pyridin-2-yl)methoxy)-N-((dimethylamino)methylene)-2,6-difluorobenzamide] |
| 4 µg/mL (≈ 9.41 µM) | 4 µg/mL (≈ 9.41 µM) |  |  |  | C/C(=N\C(=O)c1c(F)ccc(OCc2nc3cc(Cl)cnc3s2)c1F)N(C)C [Example 4a, 3-((6-Chlorothiazolo[5,4-b]pyridin-2-yl)methoxy)-N-(1-(dimethylamino)ethylidene)-2,6-difluorobenzamide] |
| 0.0625 µg/mL (≈ 0.112 µM) | 1 µg/mL (≈ 1.8 µM) |  |  |  | CN1CCC(C(=O)NC(=O)c2c(F)ccc(OCc3nc(-c4ccc(OC(F)(F)F)cc4)ns3)c2F)CC1 [Example 47] |
| 32 µg/mL (≈ 64.5 µM) | 4 µg/mL (≈ 8.07 µM) |  |  |  | CN1CCC(OC(=O)NC(=O)c2c(F)ccc(OCc3nc4cc(Cl)ccc4s3)c2F)CC1 [Example 34, 1-methylpiperidin-4-yl (3-((5-chlorobenzo[d]thiazol-2-yl)methoxy)-2,6-difluorobenzoyl)carbamate] |
| > 64 µg/mL | 8 µg/mL (≈ 18.7 µM) |  |  |  | CCOC(=O)NC(=O)c1c(F)ccc(OCc2nc3cc(Cl)ccc3s2)c1F [Example 28] |
| 2 µg/mL (≈ 5.2 µM) | 2 µg/mL (≈ 5.2 µM) |  |  |  | O=C(NCO)c1c(F)ccc(OCc2nc3cc(Cl)ccc3s2)c1F [Example 16] |
| 2 µg/mL (≈ 5.04 µM) | 4 µg/mL (≈ 10.1 µM) |  |  |  | CC(=O)NC(=O)c1c(F)ccc(OCc2nc3cc(Cl)ccc3s2)c1F [Example 2] |
